Measurements published in patent US20100172854A1, “ANTIBACTERIAL FORMULATIONS” (priority 2007, published 2010).
In brackets after ≈: the same amount, converted by molar mass.

Tests used:
[1] = tested on: Propionibacterium acnes NCTC 737; assay: MIC assay; format: cell-based; settings: Cutibacterium acnes, NCTC737; P. acnes NCTC 737
Procedure: (§1) The propionibacteria were cultured and maintained on Wilkins-Chalgren Anaerobe Medium (agar and broth) at pH 6.0; all cultures were incubated anaerobically at 37° C. for 72 hours.
This is a standard international method for quantitatively assessing the antimicrobial activity of a compound in a liquid medium. The method used a sterile 96-well microtitre plate, capable of holding about 200 μl of liquid per well. The wells contained liquid culture medium and ranges of decreasing concentrations of the relevant test compound in doubling dilutions (e.g. 1000, 500, 250, 125 . . . μg/ml, etc. down to 0.49 μg/ml). The culture media were as described above.
The wells were inoculated with a liquid suspension of freshly grown micro-organism and incubated under the conditions described above. After incubation, the microtitre plate was examined visually (with the aid of a light box) for cloudiness in each well, which would indicate microbial growth. The MIC value was recorded as the lowest concentration of test compound required to inhibit microbial growth, i.e. the lowest concentration for which the liquid in the well remained clear.
The assays included both negative (culture medium with no micro-organisms) and positive (culture medium plus diluting solvent plus micro-organism) controls.

P. granulosum PRP-019 = assay: Agar dilution MIC assay; format: cell-based; settings: Propionibacterium, PRP019, resistance phenotype MLSK
Procedure: as §1
(§2) This is a standard international method for quantitatively assessing the antimicrobial activity of a compound in a solid medium. The test compound was prepared to 40× the highest concentration required (e.g. 10 mg/ml for a final concentration of 250 μg/ml) and a series of doubling dilutions were performed in a suitable solvent. A set amount of these antimicrobial stock solutions was then added to molten agar medium (ca. 55° C.), mixed thoroughly, poured into sterile Petri dishes and allowed to cool/set. The culture medium was as described above.
(§3) A Multipoint™ Inoculator (AQS Manufacturing Ltd, UK) was used to inoculate the plates by spotting the inocula onto the surface of the agar, delivering approximately 1 to 2 μl per spot (yielding 10^5 CFU (colony forming units) per spot).
(§4) The plate(s) were then incubated under the conditions described above, following which they were examined visually for signs of bacterial growth. The MIC value was ascertained when there was a marked reduction in, or total loss of, growth on the test plate at the lowest concentration as compared to that of the growth on the control plate.
(§5) The assays were conducted in triplicate and included a positive control (culture medium, diluting solvent and inoculum).

P. granulosum PRP-021 = assay: Agar dilution MIC assay; format: cell-based; settings: Propionibacterium, PRP021, resistance phenotype MLS
Procedure: as §1, §2, §3, §4, §5

P. granulosum PRP-043 = assay: Agar dilution MIC assay; format: cell-based; settings: Propionibacterium, PRP043, resistance phenotype MLS
Procedure: as §1, §2, §3, §4, §5

P. granulosum PRP-044 = assay: Agar dilution MIC assay; format: cell-based; settings: Propionibacterium, PRP044, resistance phenotype MLS
Procedure: as §1, §2, §3, §4, §5

P. granulosum PRP-055 = assay: Agar dilution MIC assay; format: cell-based; settings: Propionibacterium, PRP055, resistance phenotype None
Procedure: as §1, §2, §3, §4, §5

[2] = tested on: Propionibacterium acnes NCTC 737; assay: Agar dilution MIC assay; format: cell-based; settings: Cutibacterium acnes, NCTC737, resistance phenotype None
Procedure: as §1, §2, §3, §4, §5

[3] = tested on: Propionibacterium granulosum NCTC 11865; assay: Agar dilution MIC assay; format: cell-based; settings: NCTC11865, resistance phenotype None
Procedure: as §1, §2, §3, §4, §5

P. acnes PPR-007 = assay: Agar dilution MIC assay; format: cell-based, Propionibacterium acnes; settings: Cutibacterium acnes, PPR007
Procedure: as §1, §2, §3, §4, §5

P. acnes PRP-002 = assay: Agar dilution MIC assay; format: cell-based, Propionibacterium acnes; settings: Cutibacterium acnes, PRP002, resistance phenotype Tet/MLS
Procedure: as §1, §2, §3, §4, §5

P. acnes PRP-003 = assay: Agar dilution MIC assay; format: cell-based, Propionibacterium acnes; settings: Cutibacterium acnes, PRP003, resistance phenotype Tet
Procedure: as §1, §2, §3, §4, §5

P. acnes PRP-004 = assay: Agar dilution MIC assay; format: cell-based, Propionibacterium acnes; settings: Cutibacterium acnes, PRP004, resistance phenotype Tet
Procedure: as §1, §2, §3, §4, §5

P. acnes PRP-008 = assay: Agar dilution MIC assay; format: cell-based, Propionibacterium acnes; settings: Cutibacterium acnes, PRP008, resistance phenotype Clin
Procedure: as §1, §2, §3, §4, §5

P. acnes PRP-010 = assay: Agar dilution MIC assay; format: cell-based, Propionibacterium acnes; settings: Cutibacterium acnes, PRP010, resistance phenotype MLSK
Procedure: as §1, §2, §3, §4, §5

P. acnes PRP-017 = assay: Agar dilution MIC assay; format: cell-based, Propionibacterium acnes; settings: Cutibacterium acnes, PRP017, resistance phenotype MLS
Procedure: as §1, §2, §3, §4, §5

P. acnes PRP-023 = assay: Agar dilution MIC assay; format: cell-based, Propionibacterium acnes; settings: Cutibacterium acnes, PRP023, resistance phenotype MLSK
Procedure: as §1, §2, §3, §4, §5

P. acnes PRP-026 = assay: Agar dilution MIC assay; format: cell-based, Propionibacterium acnes; settings: Cutibacterium acnes, PRP026, resistance phenotype MLS
Procedure: as §1, §2, §3, §4, §5

P. acnes PRP-039 = assay: Agar dilution MIC assay; format: cell-based, Propionibacterium acnes; settings: Cutibacterium acnes, PRP039, resistance phenotype Tet/MLS
Procedure: as §1, §2, §3, §4, §5

P. acnes PRP-046 = assay: Agar dilution MIC assay; format: cell-based, Propionibacterium acnes; settings: Cutibacterium acnes, PRP046, resistance phenotype None
Procedure: as §1, §2, §3, §4, §5

P. acnes PRP-053 = assay: Agar dilution MIC assay; format: cell-based, Propionibacterium acnes; settings: Cutibacterium acnes, PRP053, resistance phenotype Tet/MLS
Procedure: as §1, §2, §3, §4, §5

P. acnes PRP-059 = assay: Agar dilution MIC assay; format: cell-based, Propionibacterium acnes; settings: Cutibacterium acnes, PRP059, resistance phenotype MLS
Procedure: as §1, §2, §3, §4, §5

P. acnes PRP-101 = assay: Agar dilution MIC assay; format: cell-based, Propionibacterium acnes; settings: Cutibacterium acnes, PRP101, resistance phenotype Tet/MLS
Procedure: as §1, §2, §3, §4, §5

P. acnes PRP-102 = assay: Agar dilution MIC assay; format: cell-based, Propionibacterium acnes; settings: Cutibacterium acnes, PRP102, resistance phenotype Tet/MLS
Procedure: as §1, §2, §3, §4, §5

a range of test bacteria = settings: compound isolated from Aspergillus fumigatus, believed to be Antioxidant 2246; cited from earlier work

Question: Which MIC [1] does the source give for `Cc1cc(Cc2cc(C)cc(C(C)(C)C)c2O)c(O)c(C(C)(C)C)c1` [AO 2246, 2,2′-methylene-bis(4-methyl-6-tert-butylphenol)] here?
Answer: The MIC was 3.9 µg/mL (≈ 11.5 µM).

Question: What about the MIC (P. granulosum PRP-019) of the same compound?
Answer: The MIC was 3.9 µg/mL (≈ 11.5 µM).

Question: What about the MIC (P. granulosum PRP-021) of the same compound?
Answer: The MIC was 3.9 µg/mL (≈ 11.5 µM).

Question: And the MIC (P. granulosum PRP-043)?
Answer: Its MIC is 1.95 µg/mL (≈ 5.73 µM).

Question: And the MIC (P. granulosum PRP-044)?
Answer: The MIC was 3.9 µg/mL (≈ 11.5 µM).

Question: And the MIC (P. granulosum PRP-055)?
Answer: Its MIC is 3.9 µg/mL (≈ 11.5 µM).

Question: What about the MIC [2] of the same compound?
Answer: Its MIC is 3.9 µg/mL (≈ 11.5 µM).

Question: What about the MIC [3] of the same compound?
Answer: Its MIC is 1.95 µg/mL (≈ 5.73 µM).

Question: And the MIC (P. acnes PPR-007)?
Answer: The MIC was 1.95 µg/mL (≈ 5.73 µM).

Question: And the MIC (P. acnes PRP-002)?
Answer: Its MIC is 3.9 µg/mL (≈ 11.5 µM).

Question: What about the MIC (P. acnes PRP-003) of the same compound?
Answer: The MIC was 3.9 µg/mL (≈ 11.5 µM).

Question: And the MIC (P. acnes PRP-004)?
Answer: The MIC was 3.9 µg/mL (≈ 11.5 µM).

Question: What about the MIC (P. acnes PRP-008) of the same compound?
Answer: The MIC was 1.95 µg/mL (≈ 5.73 µM).

Question: What about the MIC (P. acnes PRP-010) of the same compound?
Answer: Its MIC is 3.9 µg/mL (≈ 11.5 µM).

Question: And the MIC (P. acnes PRP-017)?
Answer: Its MIC is 3.9 µg/mL (≈ 11.5 µM).

Question: What about the MIC (P. acnes PRP-023) of the same compound?
Answer: The MIC was 3.9 µg/mL (≈ 11.5 µM).

Question: And the MIC (P. acnes PRP-026)?
Answer: Its MIC is 3.9 µg/mL (≈ 11.5 µM).

Question: And the MIC (P. acnes PRP-039)?
Answer: Its MIC is 3.9 µg/mL (≈ 11.5 µM).

Question: What about the MIC (P. acnes PRP-046) of the same compound?
Answer: The MIC was 3.9 µg/mL (≈ 11.5 µM).

Question: What about the MIC (P. acnes PRP-053) of the same compound?
Answer: Its MIC is 3.9 µg/mL (≈ 11.5 µM).

Question: What about the MIC (P. acnes PRP-059) of the same compound?
Answer: Its MIC is 3.9 µg/mL (≈ 11.5 µM).

Question: And the MIC (P. acnes PRP-101)?
Answer: Its MIC is 3.9 µg/mL (≈ 11.5 µM).

Question: What about the MIC (P. acnes PRP-102) of the same compound?
Answer: The MIC was 3.9 µg/mL (≈ 11.5 µM).

Question: What about the “in vitro antimicrobial activity” value (a range of test bacteria) of the same compound?
Answer: The value was “no in vitro antimicrobial activity”.
